Key:
[1] = molecular target: T1, Oxysterols receptor LXR-alpha (Homo sapiens, UniProt Q13133); assay: Agonist activity at Gal4-tagged LXRalpha (unknown origin) expressed in CHOK1 cells after 24 hrs by luciferase reporter gene assay; type: cell-based, CHO-K1
T1 sequence (Q13133 whole entry): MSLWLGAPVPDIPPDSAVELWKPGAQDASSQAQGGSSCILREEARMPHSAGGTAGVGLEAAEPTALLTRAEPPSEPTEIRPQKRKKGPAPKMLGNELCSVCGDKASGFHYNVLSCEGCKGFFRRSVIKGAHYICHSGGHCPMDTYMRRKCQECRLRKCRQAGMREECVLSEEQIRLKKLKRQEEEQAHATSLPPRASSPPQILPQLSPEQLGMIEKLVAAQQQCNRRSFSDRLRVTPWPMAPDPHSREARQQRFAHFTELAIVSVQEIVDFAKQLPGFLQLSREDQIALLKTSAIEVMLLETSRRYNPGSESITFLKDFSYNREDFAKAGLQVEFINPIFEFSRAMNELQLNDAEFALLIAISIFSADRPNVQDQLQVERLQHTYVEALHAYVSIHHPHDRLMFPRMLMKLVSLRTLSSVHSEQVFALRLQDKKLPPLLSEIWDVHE

[2] = molecular target: T2, Oxysterols receptor LXR-beta (Homo sapiens, UniProt P55055); assay: Agonist activity at Gal4-tagged LXRbeta (unknown origin) expressed in CHOK1 cells after 24 hrs by luciferase reporter gene assay; type: cell-based, CHO-K1
T2 sequence (P55055 whole entry): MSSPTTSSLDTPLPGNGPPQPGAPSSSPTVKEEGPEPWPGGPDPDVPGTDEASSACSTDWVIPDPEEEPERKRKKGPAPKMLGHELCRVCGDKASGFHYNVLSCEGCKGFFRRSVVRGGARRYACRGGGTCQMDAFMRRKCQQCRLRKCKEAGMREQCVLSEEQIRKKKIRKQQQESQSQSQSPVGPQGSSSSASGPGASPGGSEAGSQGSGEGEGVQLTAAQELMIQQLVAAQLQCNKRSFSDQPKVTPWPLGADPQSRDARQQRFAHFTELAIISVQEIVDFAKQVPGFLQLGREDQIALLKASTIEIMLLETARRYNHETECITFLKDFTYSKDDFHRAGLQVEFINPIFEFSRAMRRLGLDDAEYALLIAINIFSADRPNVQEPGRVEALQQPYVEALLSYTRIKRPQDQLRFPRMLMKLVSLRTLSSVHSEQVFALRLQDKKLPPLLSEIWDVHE

Hamster [3] = assay: Effect on Plasma triglyceride level in high-fat-and-cholesterol diet fed Male Bio F1B hamster at 100 mg/kg, po relative to control; type: organism-based; set-up: dose 100 mg/kg, route oral; conditions: cricetinae, in vivo
Hamster [4] = assay: Effect on total cholesterol level in high-fat-and-cholesterol diet fed Male Bio F1B hamster plasma at 300 mg/kg, po relative to control; type: functional, Cricetinae
Hamster [5] = assay: Effect on total cholesterol level in high-fat-and-cholesterol diet fed Male Bio F1B hamster plasma at 30 mg/kg, po relative to control; type: functional, Cricetinae
Syrian golden hamster = assay: Plasma concentration in Golden Syrian hamster at 100 mg/kg, po; type: ADME, organism-based, Mesocricetus auratus; set-up: dose 100 mg/kg, route oral; conditions: in vivo
Hamster [6] = assay: Effect on Plasma triglyceride level in high-fat-and-cholesterol diet fed Male Bio F1B hamster at 300 mg/kg, po relative to control; type: organism-based; set-up: dose 300 mg/kg, route oral; conditions: cricetinae, in vivo
Hamster [7] = assay: Effect on area of lipid accumulation in high-fat-and-cholesterol diet fed Male Bio F1B hamster aortic arch at 30 mg/kg, po relative to control; type: functional, Cricetinae
Hamster [8] = assay: Effect on HDL-C level in high-fat-and-cholesterol diet fed Male Bio F1B hamster plasma at 300 mg/kg, po relative to control; type: functional, Cricetinae
Hamster [9] = assay: Effect on area of lipid accumulation in high-fat-and-cholesterol diet fed Male Bio F1B hamster aortic arch at 100 mg/kg, po relative to control; type: functional, Cricetinae, Pharyngeal arch artery
Hamster [10] = assay: Effect on Plasma triglyceride level in high-fat-and-cholesterol diet fed Male Bio F1B hamster at 30 mg/kg, po relative to control; type: organism-based; set-up: dose 30 mg/kg, route oral; conditions: cricetinae, in vivo
Hamster [11] = assay: Effect on total cholesterol level in high-fat-and-cholesterol diet fed Male Bio F1B hamster plasma at 100 mg/kg, po relative to control; type: functional, Cricetinae
[12] = Plasma concentration in Golden Syrian hamster at 300 mg/kg, po after 0.5 hrs; type: ADME, organism-based, Mesocricetus auratus; set-up: dose 300 mg/kg, route oral
[13] = Plasma concentration in Golden Syrian hamster at 300 mg/kg, po after 2 hrs; type: ADME, organism-based, Mesocricetus auratus; set-up: dose 300 mg/kg, route oral
Hamster [14] = assay: Effect on area of lipid accumulation in high-fat-and-cholesterol diet fed Male Bio F1B hamster aortic arch at 300 mg/kg, po relative to control; type: functional, Cricetinae, Pharyngeal arch artery
Hamster [15] = assay: Effect on HDL-C level in high-fat-and-cholesterol diet fed Male Bio F1B hamster plasma at 100 mg/kg, po relative to control; type: functional, Cricetinae
Hamster [16] = assay: Effect on HDL-C level in high-fat-and-cholesterol diet fed Male Bio F1B hamster plasma at 30 mg/kg, po relative to control; type: functional, Cricetinae
[17] = Plasma concentration in Golden Syrian hamster at 300 mg/kg, po after 1 hr; type: ADME, organism-based, Mesocricetus auratus; set-up: dose 300 mg/kg, route oral
HepG2 [18] = assay: Induction of ABCA1 mRNA expression in human HepG2 cells at 5 uM relative to control; type: functional
HepG2 [19] = assay: Induction of SREBP-1c mRNA expression in human HepG2 cells at 5 uM relative to control; type: functional
HepG2 [20] = assay: Ratio of induction of ABCA1 mRNA expression to SREBP-1c mRNA expression in human HepG2 cells at 5 uM; type: functional
Hamster [21] = assay: Effect on total cholesterol level in high-fat-and-cholesterol diet fed Male Bio F1B hamster plasma at 3 mg/kg, po relative to control; type: functional, Cricetinae
Hamster [22] = assay: Effect on area of lipid accumulation in high-fat-and-cholesterol diet fed Male Bio F1B hamster aortic arch at 10 mg/kg, po relative to control; type: functional, Cricetinae
Hamster [23] = assay: Effect on Plasma triglyceride level in high-fat-and-cholesterol diet fed Male Bio F1B hamster at 10 mg/kg, po relative to control; type: organism-based; set-up: dose 10 mg/kg, route oral; conditions: cricetinae, in vivo
Hamster [24] = assay: Effect on area of lipid accumulation in high-fat-and-cholesterol diet fed Male Bio F1B hamster aortic arch at 3 mg/kg, po relative to control; type: functional, Cricetinae
Hamster [25] = assay: Effect on HDL-C level in high-fat-and-cholesterol diet fed Male Bio F1B hamster plasma at 10 mg/kg, po relative to control; type: functional, Cricetinae
Hamster [26] = assay: Effect on total cholesterol level in high-fat-and-cholesterol diet fed Male Bio F1B hamster plasma at 10 mg/kg, po relative to control; type: functional, Cricetinae
Hamster [27] = assay: Effect on Plasma triglyceride level in high-fat-and-cholesterol diet fed Male Bio F1B hamster at 3 to 10 mg/kg, po relative to control; type: organism-based; set-up: dose 3-10 mg/kg, route oral; conditions: cricetinae, in vivo
Hamster [28] = assay: Effect on Plasma triglyceride level in high-fat-and-cholesterol diet fed Male Bio F1B hamster at 3 mg/kg, po relative to control; type: organism-based; set-up: dose 3 mg/kg, route oral; conditions: cricetinae, in vivo
Hamster [29] = assay: Effect on HDL-C level in high-fat-and-cholesterol diet fed Male Bio F1B hamster plasma at 3 mg/kg, po relative to control; type: functional, Cricetinae
Hamster [30] = assay: Effect on HDL-C level in high-fat-and-cholesterol diet fed Male Bio F1B hamster plasma at 3 to 10 mg/kg, po relative to control; type: functional, Cricetinae; conditions: dose mg/kg 3-10

Compound: CCCc1cc2c(C(F)(F)F)cc(=O)oc2c(CCC)c1OCCCCN1C(=O)NC(C)(c2ccc(OC)c(OC)c2)C1=O (centres undefined)
- EC50 ([1]; cho-k1): Not Active
- EC50 ([2]; cho-k1): Not Active

Compound: CCCc1cc2c(C(F)(F)F)cc(=O)oc2c(CCC)c1OCCCCN1C(=O)NC(C)(c2ccc3c(c2)OCO3)C1=O (centres undefined)
- EC50 ([2]; read-out: EC50): 1200 nM

Compound: CCCc1cc2c(C(F)(F)F)cc(=O)oc2c(CCC)c1OCCCCN1C(=O)NC(C)(c2ccc(N(C)C)cc2)C1=O (centres undefined)
- EC50 ([1]; cho-k1): Not Active
- EC50 ([2]; cho-k1): Not Active

Compound: CCCc1cc2c(C(F)(F)F)cc(=O)oc2c(CCC)c1OCCCCN1C(=O)NC(C)(c2ccc(C(F)(F)F)cc2)C1=O (centres undefined)
- EC50 ([1]; cho-k1): Not Active

Compound: CCCc1cc2c(C(F)(F)F)cc(=O)oc2c(CCC)c1OCCCCN1C(=O)NC(C)(c2ccc([N+](=O)[O-])cc2)C1=O (centres undefined)
- EC50 ([1]; cho-k1): Not Active
- EC50 ([2]; read-out: EC50): 8000 nM

Compound: CCCc1cc2c(C(F)(F)F)cc(=O)oc2c(CCC)c1OCCCCN1C(=O)NC(C)(c2ccc(C(=O)O)cc2)C1=O (centres undefined)
- EC50 ([1]; cho-k1): Not Active
- EC50 ([2]; cho-k1): Not Active

Compound: CCCc1cc2c(C(F)(F)F)cc(=O)oc2c(CCC)c1OCCCCN1C(=O)NC(C)(c2ccc(O)cc2)C1=O (centres undefined)
- EC50 ([1]; cho-k1): Not Active
- EC50 ([2]; cho-k1): Not Active

Compound: CCCc1c(OCCCCN2C(=O)CN(C)C2=O)ccc2c(C(F)(F)F)cc(=O)oc12
- EC50 ([2]; read-out: EC50): 1300 nM

Compound: CCCc1c(OCCCCN2C(=O)NC(C)(c3ccccc3)C2=O)ccc2c(C(F)(F)F)cc(=O)oc12 (centres undefined)
- EC50 ([1]; cho-k1): Not Active
- EC50 ([2]; read-out: EC50): 2000 nM

Compound: CCCc1c(OCCCCN2C(=O)NC(C)(c3ccc(OC)cc3)C2=O)ccc2c(C(F)(F)F)cc(=O)oc12 (centres undefined)
- Activity (Hamster [3]): 131%
- Activity (Hamster [4]): 98%
- Activity (Hamster [5]): 115%
- Cp (Syrian golden hamster): Not Active
- Activity (Hamster [6]): 96%
- Activity (Hamster [7]): 119%
- Activity (Hamster [8]): 113%
- Activity (Hamster [9]): 102%
- Activity (Hamster [10]): 136%
- Activity (Hamster [11]): 101%
- concentration at 0.5 h [12]: 50 ng/mL
- concentration at 2 h [13]: 59 ng/mL
- Activity (Hamster [14]): 56%
- Activity (Hamster [15]): 96%
- Activity (Hamster [16]): 96%
- concentration at 1 h [17]: 53 ng/mL

Compound: CCCc1c(OCCCCN2C(=O)NC(C)(c3ccc(OC)c(OC)c3)C2=O)ccc2c(C(F)(F)F)cc(=O)oc12 (centres undefined)
- EC50 ([1]; cho-k1): Not Active
- EC50 ([2]; read-out: EC50): 3000 nM

Compound: CCCc1c(OCCCCN2C(=O)NC(C)(c3ccc4c(c3)OCO4)C2=O)ccc2c(C(F)(F)F)cc(=O)oc12 (centres undefined)
- EC50 ([2]; read-out: EC50): 1100 nM

Compound: CCCc1c(OCCCCN2C(=O)NC(C)(c3ccc(C(=O)O)cc3)C2=O)ccc2c(C(F)(F)F)cc(=O)oc12 (centres undefined)
- EC50 ([1]; cho-k1): Not Active
- EC50 ([2]; cho-k1): Not Active

Compound: CCCc1c(OCCCCN2C(=O)NC(C)(c3ccc(O)cc3)C2=O)ccc2c(C(F)(F)F)cc(=O)oc12 (centres undefined)
- EC50 ([1]; cho-k1): Not Active

Compound: CCCc1c(OCCCN2C(=O)CSC2=O)ccc2c(C(F)(F)F)noc12
- EC50 ([1]; read-out: EC50): 1300 nM
- EC50 ([2]; read-out: EC50): 690 nM

Compound: O=C(O)Cc1cccc(OCCCN(Cc2cccc(C(F)(F)F)c2Cl)CC(c2ccccc2)c2ccccc2)c1
- EC50 ([1]; read-out: EC50): 1300 nM
- fold change (FC) (HepG2 [18]): 15
- fold change (FC) (HepG2 [19]): 4.9
- EC50 ([2]; read-out: EC50): 420 nM
- Ratio (HepG2 [20]): 3.1

Compound: O=S(=O)(c1ccccc1)N(CC(F)(F)F)c1ccc(C(O)(C(F)(F)F)C(F)(F)F)cc1 [T091317]
- Activity (Hamster [21]): 123%
- Activity (Hamster [22]): 52%
- Activity (Hamster [23]): 243%
- Activity (Hamster [24]): 53%
- Activity (Hamster [25]): 59%
- Activity (Hamster [26]): 127%
- Activity (Hamster [27]): 50%
- Activity (Hamster [28]): 206%
- Activity (Hamster [29]): 67%
- fold change (FC) (Hamster [30]): 3

— ChEMBL document CHEMBL3399967, “Design and discovery of 2-oxochromene derivatives as liver X receptor β-selective agonists” (Bioorg Med Chem Lett, 2015)
